Data on two molecules can be found in US9920039B2, “1,2,4-Oxadiazol compounds active against gram-positive pathogens” (UNIVERSITÀ DEGLI STUDI DI MILANO—BICOCCA, priority 2013, dated 2018).

Series [1] has as its system 11 Linezolid-resistant CoNS. Nature of the series: MIC summary on strain panel (Table 5). The series is classed as cell-based, Staphylococcus epidermidis, Staphylococcus hominis. The text has this:
(§1) The in vitro antibacterial activity of the new agents was studied by determining their minimum inhibitory concentrations (MICs) by means of the broth microdilution method according to the Clinical and Laboratory Standards Institute (CLSI) guidelines.[16] Briefly, serial 2-fold dilutions of each compound were made using the Cation adjusted Mueller-Hinton broth (CAMHB) in microtitre plates with 96 wells. Dimethyl sulfoxide (DMSO) was used as solvent for all the synthesized compounds. An equal volume of the bacterial inoculum (1×10^6 CFU/mL) was added to each well on the microtitre plate containing 0.05 mL of the serial antibiotic dilutions. The microtitre plate was then incubated at 37° C. for 18-24 h after which each well was analysed for the presence of bacterial growth. The MIC was defined as the lowest concentration of antimicrobial agent able to cause inhibition of bacterial growth as shown by the lack of turbidity of the culture medium. […] Final DMSO concentrations were also taken into account in all the biological assays.

Series [2] concerns Linezolid-resistant S. epidermidis Strains 1-10. Nature of the series: MIC by broth microdilution (Table 5). The series is classed as cell-based, Staphylococcus epidermidis.
Excerpt: as §1

The subject of series [3] is mitochondrial protein synthesis (OXPHOS complexes) in HepG2 cells. Nature of the series: Oxidative phosphorylation (OXPHOS) assay. The text has this:
This assay (Nadaciva S. et al., 2010) is used to monitor the level of mitochondrial protein synthesis of some key proteins in the process of oxidative phosphorylation of eukaryotic cells, comparing it with the level of synthesis of mitochondrial proteins encoded by nuclear DNA. This study allows us to analyze the effects of A4bS on the proteins encoded by mitochondrial DNA (mtDNA).
The data represent the mean±SEM of three separate experiments performed in triplicate. Statistical significance is obtained by the Student's test compared to the […].

The test system of series [4] is Staphylococcus aureus ATCC 29213. Nature of the series: MIC by broth microdilution (CLSI). It is filed as cell-based. Particulars: read-out: MIC.
Excerpt: (§2) Several well characterized for their antibiotic-susceptibility phenotype Staphylococcus aureus isolates were used for the determination of the in vitro antibacterial activity of the studied compounds. In particular, S. aureus ATCC 29213 reference standard strain and S. aureus M923 (collection strain) were used as MSSA strains. Among MRSA, S. aureus MU50 (ATCC 700699) reference standard strain and two collection strains (433 and F511) were used for susceptibility assays.
as §1
(§3) The antimicrobial activities, summarized in Table 2, were determined by the “gold standard” method of broth microdilution, as recommended by the Clinical Laboratory Standards Institute (CLSI) (See the Experimental Section). […] In detail, the bacterial strains were tested: Staphylococcus aureus ATCC 29213, a clinical strain of methicillin-susceptible S. aureus (M923), S. aureus MU50 (methicillin-resistant—MRSA), and two methicillin-resistant clinical strains, 433 and F511.
(§4) The antimicrobial activities, summarized in Table 3, were determined by the “gold standard” method of broth microdilution, as recommended by the Clinical Laboratory Standards Institute (CLSI) (See the Experimental Section). The minimum inhibitory concentration (MIC) values were expressed in μg/mL. […] In detail, the tested bacterial strains were: Staphylococcus aureus ATCC 29213, a clinical strain of methicillin-susceptible S. aureus (M923), S. aureus MU50 (methicillin-resistant—MRSA) strain, and two methicillin-resistant clinical strains, 433 and F511.

Series [5] has as its system Linezolid-resistant S. hominis Strain 11. Nature of the series: MIC by broth microdilution (Table 5). It is filed as cell-based, Staphylococcus hominis. Conditions: S. hominis Strain 11, linezolid-resistant.
Excerpt: as §1

Series [6] relates to ATCC E. faecalis 29212. In words: MIC by broth microdilution (Table 5). It is filed as cell-based, Enterococcus faecalis. Here is the method: Dimethyl sulfoxide (DMSO) was used as solvent for all the synthesized compounds. An equal volume of the bacterial inoculum (1×10^6 CFU/mL) was added to each well on the microtitre plate containing 0.05 mL of the serial antibiotic dilutions. The microtitre plate was then incubated at 37° C. for 18-24 h after which each well was analysed for the presence of bacterial growth. The MIC was defined as the lowest concentration of antimicrobial agent able to cause inhibition of bacterial growth as shown by the lack of turbidity of the culture medium. […] Final DMSO concentrations were also taken into account in all the biological assays.

The test system of series [7] is 45 Linezolid-susceptible MRSA. Nature of the series: MIC summary on strain panel (Table 5). The series is classed as cell-based, Staphylococcus aureus.
Excerpt: In particular, eleven linezolid-resistant coagulase-negative staphylococci (CoNS) (ten S. epidermidis and one S. hominis) were investigated. The eleven linezolid-resistant strains were isolated in several hospital settings between 2010 and 2011 from positive blood cultures. For the […], recently isolated from patients with cystic fibrosis, showing different profiles of multi-resistance to different classes of antimicrobials, was used (Table 4 and 5).
as §1

Series [8] deals with MRSA clinical strain F511. In words: MIC by broth microdilution (CLSI). The series is classed as cell-based, Staphylococcus aureus. Particulars: Staphylococcus aureus, racemic mixture, Table 2, read-out: MIC.
Excerpt: as §2, §1, §3, §4

Series [9] has as its system methicillin-susceptible S. aureus (M923). In words: MIC by broth microdilution (CLSI). The series is classed as cell-based, Staphylococcus aureus. Particulars: Staphylococcus aureus; MSSA M923; racemic mixture; Table 2; read-out: MIC.
Excerpt: as §2, §1, §3, §4

The subject of series [10] is MRSA clinical strain 433. In words: MIC by broth microdilution (CLSI). The series is classed as cell-based, Staphylococcus aureus. Particulars: Staphylococcus aureus; MRSA 433; racemic mixture; Table 2; read-out: MIC.
Excerpt: as §2, §1, §3, §4

In series [11] the test system is S. aureus MU50 (ATCC 700699), methicillin-resistant (MRSA). Nature of the series: MIC by broth microdilution (CLSI). The series is classed as cell-based, Staphylococcus aureus. Particulars: Staphylococcus aureus, racemic mixture, Table 2, read-out: MIC.
Excerpt: as §2, §1, §3, §4

In series [12] the test system is HaCaT (human keratinocytes) cells. Nature of the series: Cell viability, MTT assay. It is filed as cell-based. Particulars: P<0.01, FIG. 3. The procedure:
(§5) [17-19] HepG2 and HaCat cells were grown in Dulbecco's modified eagles medium (DMEM) whereas PK15 in DMEM/M199 (1:1). All media were supplemented with 10% heat inactivated foetal bovine serum (FBS), 2 mM L-glutamine, 100 units/mL penicillin and 100 μg/mL streptomycin. Cells were maintained at 37° C. in a 5% CO2 atmosphere. All reagents for cell culture were from Euroclone (Pero, Italy).
(§6) Cell viability was measured by the MTT assay.[20] Briefly, MTT [3-(4,5-Dimethylthiazol-2-yl)-2,5-diphenyltetrazolium bromide] stock solution (5 mg/mL) was added to each well to a final concentration of 1.2 mM, and cells were incubated for 1 hour and 30 minutes at 37° C. After removing MTT solution, the reaction was stopped by adding 90% ethanol. Resuspended cells were centrifuged 10 min at 800×g. The absorbance was measured with the multilabel Victor^3 spectrophotometer (Perkin Elmer, Turku, Finland) at wavelength of 570 nm. Data are means±S.E. of 3 separate experiments performed in triplicate.
(§7) Statistical significance was obtained with Student'st test in comparison with controls *=P≤0.05, **=P≤0.001. Data are means±S.E. of 3 separate experiments performed in triplicate.
(§8) Another control was DMSO used as solvent.

Series [13] has as its system PK15 (porcine kidney epithelial) cells. In words: Cell viability, MTT assay. Conditions: 5-400 μg/mL, FIG. 2. It is filed as cell-based. Here is the method:
as §5, §6, §7, §8

For series [14], the system named is HepG2 (human hepatocellular carcinoma) cells. In words: Cell viability, MTT assay. It is filed as cell-based. Conditions: FIG. 4. The procedure: as §5, §6, §7, §8

SMILES strings stand for the structures. ≈ marks a conversion by molar mass, not a printed value. Like-named read-outs stand apart in the source and are kept apart here. A value given as a limit tells only on which side of the number the result lay.

As for `CC(=S)NC[C@H]1CN(c2ccc(-c3nc(C)no3)c(F)c2)C(=O)O1` [Compound A4bS], the MIC50 in series [1] (11 Linezolid-resistant CoNS) amounted to 4 µg/mL (≈ 11.4 µM); in [7] it was 0.5 µg/mL (≈ 1.43 µM). The same molecule registered an MIC90 in series [1] (11 Linezolid-resistant CoNS) of 8 µg/mL (≈ 22.8 µM). Further, the “effect on linezolid resistance (in words)” value in series [1] (linezolid-resistant Staphylococcus spp. strains) is listed as “completely reversed resistance to linezolid into susceptibility”. Besides, the MIC came out at 8 µg/mL (≈ 22.8 µM) in series [2] (S. epidermidis Strain 1, linezolid-resistant); 8 µg/mL (≈ 22.8 µM) in [2] (S. epidermidis Strain 2, linezolid-resistant); 4 µg/mL (≈ 11.4 µM) in series [2] (S. epidermidis Strain 3, linezolid-resistant); 4 µg/mL (≈ 11.4 µM) in series [2] (S. epidermidis Strain 4, linezolid-resistant); 2 µg/mL (≈ 5.71 µM) in series [2] (S. epidermidis Strain 5, linezolid-resistant); 4 µg/mL (≈ 11.4 µM) in series [2] (S. epidermidis Strain 6, linezolid-resistant). Moreover, the MIC in series [2] (S. epidermidis Strain 7, linezolid-resistant) was 8 µg/mL (≈ 22.8 µM); in series [2] (S. epidermidis Strain 8, linezolid-resistant), 2 µg/mL (≈ 5.71 µM); in [2] (S. epidermidis Strain 9, linezolid-resistant) it was 1 µg/mL (≈ 2.85 µM); in series [2] (S. epidermidis Strain 10, linezolid-resistant), 4 µg/mL (≈ 11.4 µM); in [4] (ATCC S. aureus 29213, resolved enantiomers, Table 5), 4 µg/mL (≈ 11.4 µM); in [5], 4 µg/mL (≈ 11.4 µM). The molecule further gave an MIC in series [6] of 2 µg/mL (≈ 5.71 µM). Further, the “effect on proteins synthesized by mtDNA (in words)” value in series [3] was “reduction of the synthesis of proteins of complex I and IV”.
Take `CC(=S)NCC1CN(c2ccc(-c3nc(C)no3)c(F)c2)C(=O)O1` (racemic) [Compound A4b, 3-(3′-fluoro-4′-(3″-methyl-1,2,4-oxadiazol-5-yl)-phenyl)-5-(N-thioacetylaminomethyl)-oxazolidin-2-one]: the MIC in [8] is 1.6 µg/mL (≈ 4.57 µM); in series [9] it was 1.6 µg/mL (≈ 4.57 µM); in [10] it was 0.8 µg/mL (≈ 2.28 µM); in series [11] it was ≤ 0.4 µg/mL; in series [4] (Staphylococcus aureus, ATCC29213, ATCC 29213, racemic mixture, Table 2), 1.6 µg/mL (≈ 4.57 µM). The “concentration reaching statistically significant mortality compared to linezolid” value in [12] is listed as 400 µg/mL. Further, the reduction of viability entry in series [13] is “less than 10%”. The “concentration from which a reduction in viability was shown” value in series [14] is on record as ≥ 50 µg/mL.
